The values below come from article PMC11341654 (2024).

The nature of data set [1]: gas phase; photoabsorption in the VUV as well as X-ray photon energy range (30 to 545 eV). Conditions: cited from earlier work.
Data set [2] in a line: deprotonated peptide anions in the gas phase, UV photoabsorption at 220 nm (ion trap). Conditions: up to 100–500 ms.
The nature of data set [3]: isolated peptide ions in the gas phase (ion trap), UV photoabsorption at 220 nm. Conditions: up to 100–500 ms.
A short description of data set [4]: UV irradiation in solution. The following applies: cited from earlier work.
The nature of data set [5]: protonated peptides irradiated in the gas phase; VUV or soft X-ray photon, carbon ions. Conditions: cited from earlier work.

For the substance PGGPPGPKGNSGEPGAPGSKGDTGAK, the cleaved bond result in data set [1] was “Gly-Pro, major”; in data set [2] it was “G-P and P-P and E-P and A-P”; in data set [3], “Gly-Pro, major and Pro-Pro and Glu-Pro and Ala-Pro and Asp-Thr and K-G”.

With (PPG)10, the cleaved bond entry in data set [4] is listed as “Gly-Pro, major”; in data set [5], “Gly-Pro, major”.

For the substance (POG)10, the cleaved bond entry in data set [4] is “Gly-Pro, major”; in data set [5] it was “Gly-Pro, major”.
